Test [1] concerns Gli3 processing in Shh-EGFP cells. The test is described as follows: Quantitative assessment of Hh ligand-dependent Gli3 processing. Type of test: cell-based. The following applies: Shh-EGFP cells stimulated with Shh-N, 16 hours. How it is done:
Shh-EGFP cells were seeded into 12-well plate at a density of 120,000 cells/well in DMEM containing 10% calf serum. 100 U/mL penicillin, and 0.1 mg/mL streptomycin. After being cultured for 24 hours, the cells were transferred into DMEM containing 0.5% calf serum, 10% Shh-conditioned medium, the antibiotics described above, and either individual compounds or DMSO. The cells were cultured for an additional 16 hours, washed with PBS, and then lysed by incubation on ice with SDS-PAGE loading buffer composed of 8% glycerol, 20 mM Tris-HCl, pH 6.8, 2% SDS, 100 mM DTT, 1 mM PMSF, 20 mM NaF, 2 mM Na3VO4, and an EDTA-free protease inhibitor cocktail (Roche). The lysed samples were heated to 100° C. for 7 minutes, loaded onto 3-8% Criterion XT Tris-Acetate polyacrylamide gels (Bio-Rad), electrophoresed in XT Tricine buffer (Bio-Rad), and transferred onto PVDF membranes. The membranes were dehydrated with methanol and probed overnight at 4° C. with goat polyclonal anti-Gli3 antibody (0.4 μg/mL: R & D Systems, AF3690) in PBS containing 4% non-fat dry milk and 0.1% Tween-20 (immunoblot blocking buffer). The blots were then washed 4×1 minutes in PBS and incubated with horseradish peroxidase-conjugated bovine polyclonal anti-goat IgG antibody (0.04 μg/mL, Jackson ImmunoResearch, 805-035-180) in immunoblot blocking buffer for 1 hour at room temperature. The membranes were next washed 4×1 minutes in PBS and visualized using SuperSignal West Dura Extended Duration substrate (Thermo Scientific) and a ChemiDoc XRS imaging system (Bio-Rad). Band intensities of Gli3FL and Gli3R where quantified using Quantity One software (Bio-Rad), and five independent experiments were used to determine the average Gli3FL/Gli3R ratio for each compound.

Test [2] deals with ciliary IFT88 in Shh-EGFP cells (cytoplasmic dynein 2-dependent retrograde transport). The test is described as follows: Quantitative assessment of IFT88 trafficking. Type of test: cell-based. Conditions: 50 μM, one hour, compared to DMSO or compound 16. An excerpt: As a microtubule-based compartment, the cilium utilizes specific motor proteins to move macromolecules along its axoneme. Intraflagellar transport (IFT) of cargo can be resolved into anterograde trafficking, which requires the plus end-directed kinesin-2 motor and the IFTB multisubunit complex, and retrograde trafficking, which utilizes the minus end-directed cytoplasmic dynein 2 motor and the IFTA complex. The genetic disruption of individual kinesin-2, cytoplasmic dynein 2, or IFT complex subunits has been previously found to induce ciliary defects and perturb Hh signaling. […] To confirm that ciliobrevins target cilia trafficking in general rather than a Hh pathway-specific process, we examined the effect of ciliobrevins on the subcellular localization of IFTB component IFT88, which requires cytoplasmic dynein 2-dependent retrograde transport for its return to the ciliary basal body.
Shh-EGFP cells were seeded into 24-well plates containing poly-D-lysine-coated 12-mm glass coverslips at a density of 30,000 cells/well and cultured for 24 hours in DMEM containing 10% calf serum, 100 U/mL penicillin, and 0.1 mg/mL streptomycin. […] Ciliary IFT levels were quantified essentially as described for Gli2 though no background was subtracted. At least 25 cilia were analyzed to determine the average ciliary IFT88 level for each experimental condition.

The structures appear in SMILES notation.

With `N#C/C(C(=O)c1ccc(Cl)cc1Cl)=C1\NC(=O)c2ccccc2N1` [Example 1, 3-(2,4-dichlorophenyl)-3-oxo-2-(4-oxo-3,4-dihydroquinazolin-2(1H)-ylidene)propanenitrile], in test [1], the Gli3FL/Gli3R ratio entry was “altered the Gli3FL/Gli3R ratio” and the “Shh-N-dependent Gli3FL phosphorylation” value was “reduced”.

Turning to `N#C/C(C(=O)c1ccc(Cl)cc1Cl)=C1\NC(=O)c2ccc(Cl)cc2N1` [Example 31, 2-(7-chloro-4-oxo-3,4-dihydroquinazolin-2(1H)-ylidene)-3-(2,4-dichlorophenyl)-3-oxo-propanenitrile], in test [1], the Gli3FL/Gli3R ratio result is reported as “altered the Gli3FL/Gli3R ratio” and the “Shh-N-dependent Gli3FL phosphorylation” value is given as “reduced”. Moreover, the “IFT88 levels at the distal tip of primary cilia” value in test [2] was “significant increase”.

The record behind these values is patent US9145376B2, “Quinazolinone inhibitors of dynein” (The Rockefeller University, priority 2011, dated 2015).
